Source: patent US8133911B2, “(R)-4-(heteroaryl) phenylethyl derivatives and pharmaceutical compositions containing them” (Dompe S.p.A, priority 2007, dated 2012)
Where two headings read alike, the source gives them in different places.

Test system: PMNs C5a induced chemotaxis
Assay: Inhibition of C5a-induced chemotaxis of human PMNs
Type: cell-based
Conditions: 1 h, read-out: C5a (% inhibition at 10^−8 M)
Protocol: The compounds prepared in Example 2 were evaluated in vitro for their ability to inhibit chemotaxis of polymorphonucleate leukocytes (hereinafter referred to as PMNs) and monocytes induced by the fractions of the complement C5a and C5a-desArg. For this purpose, to isolate the PMNs from heparinized human blood, taken from healthy adult volunteers, mononucleates were removed by means of sedimentation on dextran (according to the procedure disclosed by W. J. Ming et al., J. Immunol., 138, 1469, 1987) and red blood cells by a hypotonic solution. The cell vitality was calculated by exclusion with Trypan blue, whilst the ratio of the circulating polymorphonucleates was estimated on the cytocentrifugate after staining with Diff Quick.
Human recombinant fractions C5a and C5a-desArg (Sigma) were used as stimulating agents in the chemotaxis experiments, giving practically identical results.
The lyophilized C5a was dissolved in a volume of HBSS containing 0.2% bovin serum albumin BSA so thus to obtain a stock solution having a concentration of 10^−5 M to be diluted in HBSS to a concentration of 10^−9 M, for the chemotaxis assays.
In the chemotaxis experiments, the PMNs were incubated with the compounds of the invention of formula (I) for 15′ at 37° C. in an atmosphere containing 5% CO2. The chemotactic activity of the C5a was evaluated on human circulating polymorphonucleates (PMNs) resuspended in HBSS at a concentration of 1.5×10^6 PMNs per ml. During the chemotaxis assay (according to W. Falket et al., J. Immunol. Methods, 33, 239, 1980) PVP-free filters with a porosity of 5 μm and microchambers suitable for replication were used.
The compounds of Example 2 were evaluated at a concentration ranging between 10^−7 and 10^−10 M; for this purpose they were added, at the same concentration, both to the lower pores and the upper pores of the microchamber. The wells in the lower part contain the solution of C5a or the simple carrier, those in the upper part contain the suspension of PMNs.
Inhibition of C5a-induced chemotactic activity by the individual compounds was evaluated by incubating the microchamber for the chemotaxis for 60 min at 37° C. in an atmosphere containing 5% CO2.

[1] = compound 10^−8 M, human PMNs, C5a 10^−9 M, 60 min at 37° C.

| SMILES | inhibition at 0.01 µM [1] [%] | inhibition at 0.01 µM (Homo sapiens) [%] |
| --- | --- | --- |
| C[C@H](c1ccc(Nc2nc(C(F)(F)F)cs2)cc1)c1cc(O)no1 [Compound 10, 5-[(1R)-1-(4-{[4-(trifluoromethyl)-1,3-thiazol-2-yl]amino}phenyl)ethyl]isoxazol-3-ol] | 56 ± 1 |  |
| C[C@H](c1ccc(Nc2nc(C(F)(F)F)cs2)cc1)c1nsnc1O [Compound 14, 4-[(1R)-1-(4-{[4-(trifluoromethyl)-1,3-thiazol-2-yl]amino}phenyl)ethyl]-1,2,5-thiadiazol-3-ol] | 60 ± 9 |  |
| Cc1coc(Nc2ccc([C@@H](C)c3nnn[nH]3)cc2)n1 [Compound 6, 4-methyl-N-{4-[(1R)-1-(1H-tetrazol-5-yl)ethyl]phenyl}-1,3-oxazol-2-amine] | 51 ± 7 |  |
| C[C@H](c1ccc(Nc2nccs2)cc1)c1nnn[nH]1 [Compound 4, N-{4-[(1R)-1-(1H-tetrazol-5-yl)ethyl]phenyl}-1,3-thiazol-2-amine] | 39 ± 3 |  |
| C[C@H](c1ccc(Nc2nc(C(F)(F)F)cs2)cc1)c1cnnn1O [Compound 9, 5-[(1R)-1-(4-{[4-(trifluoromethyl)-1,3-thiazol-2-yl]amino}phenyl)ethyl]-1H-1,2,3-triazol-1-ol] | 44 ± 1 |  |
| C[C@H](c1ccc(Nc2nc(C(F)(F)F)cs2)cc1)c1ncnn1O [Compound 15, 5-[(1R)-1-(4-{[4-(trifluoromethyl)-1,3-thiazol-2-yl]amino}phenyl)ethyl]-1H-1,2,4-triazol-1-ol] | 43 ± 1 |  |
| C[C@H](c1ccc(Nc2nc(C(F)(F)F)cs2)cc1)c1ccnn1O [Compound 7, 5-[(1R)-1-(4-{[4-(trifluoromethyl)-1,3-thiazol-2-yl]amino}phenyl)ethyl]-1H-pyrazol-1-ol] | 38 ± 6 |  |
| C[C@H](c1ccc(Nc2nc(C(F)(F)F)cs2)cc1)c1nnn[nH]1 [Compound 1, N-{4-[(1R)-1-(1H-tetrazol-5-yl)ethyl]phenyl}-4-(trifluoromethyl)-1,3-thiazol-2-amine] | 60 ± 1 |  |
| C[C@H](c1ccc(Nc2nc(C(F)(F)F)cs2)cc1)c1cc(O)ns1 [Compound 12, 5-[(1R)-1-(4-{[4-(trifluoromethyl)-1,3-thiazol-2-yl]amino}phenyl)ethyl]isothiazol-3-ol] | 45 ± 3 |  |
| Cc1c(O)noc1[C@H](C)c1ccc(Nc2nc(C(F)(F)F)cs2)cc1 [Compound 11, 4-methyl-5-[(1R)-1-(4-{[4-(trifluoromethyl)-1,3-thiazol-2-yl]amino}phenyl)ethyl]isoxazol-3-ol] |  | 45 ± 4 |
| C[C@H](c1ccc(Nc2nc(C(C)(C)C)cs2)cc1)c1nnn[nH]1 [Compound 3, 4-tert-butyl-N-{4-[(1R)-1-(1H-tetrazol-5-yl)ethyl]phenyl}-1,3-thiazol-2-amine] | 42 ± 8 |  |
| C[C@H](c1ccc(Nc2nc(C(F)(F)F)co2)cc1)c1nnn[nH]1 [Compound 5, N-{4-[(1R)-1-(1H-tetrazol-5-yl)ethyl]phenyl}-4-(trifluoromethyl)-1,3-oxazol-2-amine] | 55 ± 1 |  |
| Cc1cnn(O)c1[C@H](C)c1ccc(Nc2nc(C(F)(F)F)cs2)cc1 [Compound 8, 4-methyl-5-[(1R)-1-(4-{[4-(trifluoromethyl)-1,3-thiazol-2-yl]amino}phenyl)ethyl]-1H-pyrazol-1-ol] | 48 ± 5 |  |
| C[C@H](c1ccc(Nc2nc(C(F)(F)F)cs2)cc1)c1nonc1O [Compound 13, 4-[(1R)-1-(4-{[4-(trifluoromethyl)-1,3-thiazol-2-yl]amino}phenyl)ethyl]-1,2,5-oxadiazol-3-ol] | 51 ± 4 |  |
| Cc1csc(Nc2ccc([C@@H](C)c3nnn[nH]3)cc2)n1 [Compound 2, 4-methyl-N-{4-[(1R)-1-(1H-tetrazol-5-yl)ethyl]phenyl}-1,3-thiazol-2-amine] | 45 ± 3 |  |
